We go through one compound from patent US7674801B2 (AstraZeneca AB, priority 2006, dated 2010).

≈ marks a conversion by molar mass, not a printed value.

Test [1] addresses S. aureus (SAU) GyrB ATPase (Staphylococcus aureus, UniProt P0A0K8). In words: S. aureus GyrB ATPase inhibition, ammonium molybdate/malachite green phosphate detection assay. The format is biochemical. The note with it: read-out: S. aureus (SAU) GyrB ATPase % Inhibition, compound concentration 12.5 μM. In outline: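 Phosphate from ATP hydrolysis (500 μM ATP) read as malachite green/molybdate absorbance at 650 nm after acid quench. Reaction: 1.25 nM S. aureus GyrB plus 1.25 nM E. coli GyrA, sheared DNA, Hepes pH 7.5 with Mg2+. IC50 fitted over 10 concentrations, normalised to DMSO (2%) and novobiocin (2 μM) controls.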

Test [2] relates to Streptococcus pneumoniae. Kind of test: Bacterial susceptibility testing in liquid media (MIC). The format is cell-based. The settings on record: 37° C., 24 hrs. On the procedure:
Compounds were tested for antimicrobial activity by susceptibility testing in liquid media. Compounds were dissolved in dimethylsulfoxide and tested in 10 doubling dilutions in the susceptibility assays. The organisms used in the assay were grown overnight on suitable agar media and then suspended in a liquid medium appropriate for the growth of the organism. The suspension was a 0.5 McFarland and a further 1 in 10 dilution was made into the same liquid medium to prepare the final organism suspension in 100 μL. Plates were incubated under appropriate conditions at 37° C. for 24 hrs prior to reading. The Minimum Inhibitory Concentration was determined as the lowest drug concentration able to reduce growth by 80% or more.

Chain of S. aureus (SAU) GyrB ATPase (P0A0K8 whole entry): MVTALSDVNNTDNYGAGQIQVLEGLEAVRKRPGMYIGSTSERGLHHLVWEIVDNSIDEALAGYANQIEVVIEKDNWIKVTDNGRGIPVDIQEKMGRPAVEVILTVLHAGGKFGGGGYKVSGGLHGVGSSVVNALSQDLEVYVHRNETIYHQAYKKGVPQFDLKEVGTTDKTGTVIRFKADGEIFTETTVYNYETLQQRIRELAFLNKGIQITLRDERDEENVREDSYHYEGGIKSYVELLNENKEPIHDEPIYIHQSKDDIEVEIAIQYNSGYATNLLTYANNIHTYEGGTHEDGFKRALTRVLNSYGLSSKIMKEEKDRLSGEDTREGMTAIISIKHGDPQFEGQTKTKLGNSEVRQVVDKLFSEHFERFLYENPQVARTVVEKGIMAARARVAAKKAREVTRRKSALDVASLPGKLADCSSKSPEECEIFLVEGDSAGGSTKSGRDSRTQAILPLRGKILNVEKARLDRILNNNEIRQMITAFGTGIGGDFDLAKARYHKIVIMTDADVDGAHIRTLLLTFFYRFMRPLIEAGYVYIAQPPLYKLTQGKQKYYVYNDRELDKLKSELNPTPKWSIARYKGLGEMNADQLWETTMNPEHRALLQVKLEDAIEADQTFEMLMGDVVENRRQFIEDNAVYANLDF
Chain of S. aureus (SAU) GyrB ATPase (P0AES4 whole entry, further chain): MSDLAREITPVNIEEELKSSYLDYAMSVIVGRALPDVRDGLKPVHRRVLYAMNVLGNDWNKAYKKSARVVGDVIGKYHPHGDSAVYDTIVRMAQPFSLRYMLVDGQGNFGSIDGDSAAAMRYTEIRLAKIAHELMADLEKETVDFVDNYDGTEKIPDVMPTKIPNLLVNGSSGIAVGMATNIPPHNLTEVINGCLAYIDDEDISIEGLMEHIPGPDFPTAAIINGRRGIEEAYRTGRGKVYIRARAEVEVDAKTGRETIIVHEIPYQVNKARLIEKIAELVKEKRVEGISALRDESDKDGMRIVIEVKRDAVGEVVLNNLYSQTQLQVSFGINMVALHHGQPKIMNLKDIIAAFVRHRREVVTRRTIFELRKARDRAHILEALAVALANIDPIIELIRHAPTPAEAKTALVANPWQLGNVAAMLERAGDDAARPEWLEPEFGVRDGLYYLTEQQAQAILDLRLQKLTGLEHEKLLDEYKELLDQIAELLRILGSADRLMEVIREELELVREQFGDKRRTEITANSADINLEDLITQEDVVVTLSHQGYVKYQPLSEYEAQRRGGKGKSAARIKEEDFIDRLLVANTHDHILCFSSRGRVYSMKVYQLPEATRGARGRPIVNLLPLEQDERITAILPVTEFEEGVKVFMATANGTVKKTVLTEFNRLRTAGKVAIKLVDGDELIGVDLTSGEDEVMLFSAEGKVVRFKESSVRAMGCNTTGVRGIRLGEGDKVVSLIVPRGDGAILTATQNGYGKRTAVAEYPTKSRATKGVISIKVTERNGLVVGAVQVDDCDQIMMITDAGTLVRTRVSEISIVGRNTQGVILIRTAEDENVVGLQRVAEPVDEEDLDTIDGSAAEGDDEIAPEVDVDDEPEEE

As to `CCCCNC(=O)c1nc(-c2ccc(NC(=O)NCC)nc2)sc1C(=O)O` [Example 26, 4-[(Butylamino)carbonyl]-2-(6-{[(ethylamino)carbonyl]amino}pyridin-3-yl)-1,3-thiazole-5-carboxylic acid], the inhibition at 12.5 µM in test [1] came out at 70.5%. Also, the “MIC (lowest concentration reducing growth by 80% or more)” value in test [2] amounted to 2.0 µg/mL (≈ 5.11 µM).
